MIC and IC50 data for 16 compounds are collected here from US11345694B2, “Antibacterial compounds” (DISCUVA LTD., priority 2017, dated 2022).

Usually MIC stands for the lowest concentration found to suppress growth. A lower MIC goes with greater potency. As usually defined, the IC50 is the midpoint of a concentration-inhibition curve.

Values after ≈ are worked out from the molar mass of the structure shown. Bounds are passed on as bounds.

In assay [1] the test system is E. coli NCTC 13441 (UPEC). Description: MIC broth microdilution. Type of assay: cell-based, Escherichia coli. The following applies: Escherichia coli, NCTC13441. The essentials: (§1)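 Planktonic cells were tested by CLSI broth microdilution in cation-adjusted Müller-Hinton broth, with compounds two-fold serially diluted to final concentrations of 0.39-200 μM (DMSO at most 2% final). After 20-24 h at 37° C in ambient air, MIC was taken as the lowest concentration inhibiting growth.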

In assay [2] the test system is K. pneumoniae NCTC 13438 (KP1). Description: MIC broth microdilution. It counts as cell-based, Klebsiella pneumoniae. The following applies: Klebsiella pneumoniae, NCTC13438. In outline: (§2)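 Growth inhibition scored after 20-24 h at 37 °C in ambient air, in cation-adjusted Müller-Hinton broth; MIC is the lowest inhibitory concentration. Compounds serially diluted two-fold over 0.39-200 μM final (DMSO up to 2%), per CLSI microdilution guidelines.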
For orientation: Broth dilution looks for growth in wells or tubes with falling amounts of substance.

In assay [3] the test system is human hepatocarcinoma cell line ATCC HB-8065 (HepG2). The assay is described as follows: Human cell viability (CellTiter-Glo). It counts as cell-based. As to conditions: Homo sapiens; HepG2 cells, 24 h incubation, CellTiter-Glo luminescence, 0.2-100 μM; read-out: IC50 values against the HepG2 cell line. In outline:
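Cytotoxicity was read as CellTiter-Glo luminescence after 24 h compound exposure at 37° C., 5% CO2. Final concentrations spanned 0.2-100 μM in two-fold steps, in 1% FBS MEM with 1% DMSO, on cells plated a day earlier at 20,000/well. IC50 came from 4-parameter logistic regression.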
On the technique in general: ATP-based viability assays read luminescence as a measure of living cells.

Assay [4] relates to Pseudomonas aeruginosa ATCC 33359 (PA). Description: MIC broth microdilution. Type of assay: cell-based. As to conditions: ATCC33359. The essentials:
as §1

The test system of assay [5] is Staphylococcus aureus ATCC 35556 (SA). Description: MIC broth microdilution. Type of assay: cell-based. The following applies: ATCC35556. The essentials:
as §1

Assay [6] concerns Klebsiella pneumoniae ATCC 10031 (KP2). The assay is described as follows: MIC broth microdilution. It counts as cell-based. The following applies: ATCC10031. In outline: as §2
Assay [7] relates to Escherichia coli K12 (EC). Description: MIC broth microdilution. Type of assay: cell-based. The essentials:
as §1

The subject of assay [8] is Acinetobacter baumannii ATCC 17978 (AB). Description: MIC broth microdilution. It counts as cell-based. The following applies: ATCC17978. In outline: as §1

In the case of `Cc1cc(-c2[nH]c(N)nc2-c2ccc3nccnc3c2)ccn1` [Example 31, 5-(2-Methylpyridin-4-yl)-4-(quinoxalin-6-yl)-1H-imidazol-2-amine], the MIC was 1 to 10 µM (≈ 0.302 to 3.02 µg/mL) in assay [1]; 10 to 100 µM (≈ 3.02 to 30.2 µg/mL) in assay [2]; over 100 µM in assay [4]; over 100 µM in assay [5]; at most 1 µM in assay [6]; 1 to 10 µM (≈ 0.302 to 3.02 µg/mL) in assay [7]. This compound registered an MIC in assay [8] of over 100 µM. For the same compound, in assay [3], the IC50 was over 100 µM.

In the case of `Cc1cc(-c2[nH]c(N)nc2-c2ccc(O)c(O)c2)ccn1` [Example 71, 4-(2-Amino-5-(2-methylpyridin-4-yl)-1H-imidazol-4-yl)benzene-1,2-diol], the MIC was 10 to 100 µM (≈ 2.82 to 28.2 µg/mL) in assay [1]; over 100 µM in assay [2]; over 100 µM in assay [4]; over 100 µM in assay [5]; 1 to 10 µM (≈ 0.282 to 2.82 µg/mL) in assay [6]; 10 to 100 µM (≈ 2.82 to 28.2 µg/mL) in assay [7]. The compound also had a minimal inhibitory concentration (MIC) in assay [8] of over 100 µM. Besides, the IC50 in assay [3] is over 100 µM.

In the case of `Cc1cc(-c2nc(N)[nH]c2-c2ccc(OC3CC3)c(F)c2)ccn1` [Example 14, 5-(4-Cyclopropoxy-3-fluorophenyl)-4-(2-methylpyridin-4-yl)-1H-imidazol-2-amine], the minimal inhibitory concentration (MIC) in assay [1] was at most 1 µM; in assay [2] it was 1 to 10 µM (≈ 0.324 to 3.24 µg/mL); in assay [4], over 100 µM; in assay [5] it was over 100 µM; in assay [6], at most 1 µM; in assay [7], at most 1 µM. Moreover, the MIC in assay [8] was over 100 µM. Also, the IC50 in assay [3] is over 100 µM.

In the case of `Cc1cc(-c2[nH]c(N)nc2-c2ccc3c(c2)N(CCN)CCO3)ccn1` [Example 91, 4-(4-(2-Aminoethyl)-3,4-dihydro-2H-benzo[b][1,4]oxazin-6-yl)-5-(2-methylpyridin-4-yl)-1H-imidazol-2-amine], the MIC in assay [1] is at most 1 µM; in assay [2], at most 1 µM; in assay [4], over 100 µM; in assay [5] it was over 100 µM; in assay [6], at most 1 µM; in assay [7] it was at most 1 µM. This compound also displayed an MIC in assay [8] of over 100 µM. Besides, the IC50 in assay [3] was over 100 µM.

Regarding `Cc1cc(-c2[nH]c(N)nc2-c2ccc3c(c2)NCCO3)cc(C)n1` [Example 36, 4-(3,4-Dihydro-2H-benzo[b][1,4]oxazin-6-yl)-5-(2,6-dimethylpyridin-4-yl)-1H-imidazol-2-amine], the MIC in assay [1] is at most 1 µM; in assay [2], 1 to 10 µM (≈ 0.321 to 3.21 µg/mL); in assay [4], over 100 µM; in assay [5], over 100 µM; in assay [6], at most 1 µM; in assay [7], 1 to 10 µM (≈ 0.321 to 3.21 µg/mL). In assay [8], the MIC was over 100 µM. Also, the IC50 in assay [3] is over 100 µM.

For `COc1ccc(-c2[nH]c(N)nc2-c2ccnc(C)c2)cc1F` [Example 11, 5-(3-Fluoro-4-methoxyphenyl)-4-(2-methylpyridin-4-yl)-1H-imidazol-2-amine], the MIC in assay [1] was 1 to 10 µM (≈ 0.298 to 2.98 µg/mL); in assay [2], 10 to 100 µM (≈ 2.98 to 29.8 µg/mL); in assay [4] it was over 100 µM; in assay [5] it was over 100 µM; in assay [6], at most 1 µM; in assay [7] it was 1 to 10 µM (≈ 0.298 to 2.98 µg/mL). This compound showed an MIC in assay [8] of over 100 µM. In addition, the IC50 in assay [3] was over 100 µM.

With `Cc1cc(-c2[nH]c(N)nc2-c2ccc3c(c2)CC(C)O3)ccn1` (racemic) [Example 41, 4-(2-Methyl-2,3-dihydrobenzofuran-5-yl)-5-(2-methylpyridin-4-yl)-1H-imidazol-2-amine], the MIC in assay [1] is at most 1 µM; in assay [2], 1 to 10 µM (≈ 0.306 to 3.06 µg/mL); in assay [4], over 100 µM; in assay [5], over 100 µM; in assay [6], at most 1 µM; in assay [7] it was at most 1 µM. This compound also displayed an MIC in assay [8] of over 100 µM. For the same compound, the IC50 in assay [3] is over 100 µM.

As for `Cc1cc(-c2nc(N)[nH]c2-c2ccc(OCC3CC3)c(F)c2)ccn1` [Example 13, 5-(4-(Cyclopropylmethoxy)-3-fluorophenyl)-4-(2-methylpyridin-4-yl)-1H-imidazol-2-amine], the minimum inhibitory concentration (MIC) was 1 to 10 µM (≈ 0.338 to 3.38 µg/mL) in assay [1]; 10 to 100 µM (≈ 3.38 to 33.8 µg/mL) in assay [2]; over 100 µM in assay [4]; over 100 µM in assay [5]; at most 1 µM in assay [6]; 1 to 10 µM (≈ 0.338 to 3.38 µg/mL) in assay [7]. This compound also displayed an MIC in assay [8] of over 100 µM. Further, in assay [3], the half-maximal inhibitory concentration (IC50) fell in the range of 25 to 100 µM.

Regarding `Cc1cc(-c2[nH]c(N)nc2-c2ccc3c(c2)NCCCO3)ccn1` [Example 48, 5-(2-Methylpyridin-4-yl)-4-(2,3,4,5-tetrahydrobenzo[b][1,4]oxazepin-7-yl)-1H-imidazol-2-amine], the MIC in assay [1] is 1 to 10 µM (≈ 0.321 to 3.21 µg/mL); in assay [2], 10 to 100 µM (≈ 3.21 to 32.1 µg/mL); in assay [4] it was over 100 µM; in assay [5], over 100 µM; in assay [6], at most 1 µM; in assay [7], 1 to 10 µM (≈ 0.321 to 3.21 µg/mL). The compound also returned an MIC in assay [8] of over 100 µM. Also, in assay [3], the IC50 was over 100 µM.

Consider `Cc1cc(-c2[nH]c(N)nc2-c2ccc3c(c2)OCCCO3)ccn1` [Example 5, 4-(3,4-dihydro-2H-benzo[b][1,4]dioxepin-7-yl)-5-(2-methylpyridin-4-yl)-1H-imidazol-2-amine], for which the MIC was 1 to 10 µM (≈ 0.322 to 3.22 µg/mL) in assay [1]; 10 to 100 µM (≈ 3.22 to 32.2 µg/mL) in assay [2]; over 100 µM in assay [4]; over 100 µM in assay [5]; at most 1 µM in assay [6]; 1 to 10 µM (≈ 0.322 to 3.22 µg/mL) in assay [7]. The MIC in assay [8] is over 100 µM. The IC50 in assay [3] is over 100 µM.

For `Cc1cc(-c2[nH]c(N)nc2-c2ccc(OC(F)(F)F)cc2)ccn1` [Example 20, 5-(2-Methylpyridin-4-yl)-4-(4-(trifluoromethoxy)phenyl)-1H-imidazol-2-amine], the MIC was 1 to 10 µM (≈ 0.334 to 3.34 µg/mL) in assay [1]; 10 to 100 µM (≈ 3.34 to 33.4 µg/mL) in assay [2]; over 100 µM in assay [4]; over 100 µM in assay [5]; at most 1 µM in assay [6]; 1 to 10 µM (≈ 0.334 to 3.34 µg/mL) in assay [7]. For the same compound, the MIC in assay [8] is over 100 µM. In addition, in assay [3], the IC50 lay in the range of 25 to 100 µM.

For the compound `CCOc1ccc(-c2[nH]c(N)nc2-c2ccnc(C)c2)cc1F` [Example 17, 5-(4-Ethoxy-3-fluorophenyl)-4-(2-methylpyridin-4-yl)-1H-imidazol-2-amine], the MIC in assay [1] was 1 to 10 µM (≈ 0.312 to 3.12 µg/mL); in assay [2], 10 to 100 µM (≈ 3.12 to 31.2 µg/mL); in assay [4], over 100 µM; in assay [5], over 100 µM; in assay [6], at most 1 µM; in assay [7], 1 to 10 µM (≈ 0.312 to 3.12 µg/mL). For the same compound, the MIC in assay [8] is over 100 µM. Also, the IC50 in assay [3] is over 100 µM.

Consider `CNC(=O)c1nc(-c2ccnc(C)c2)c(-c2ccc3c(c2)OCCO3)[nH]1` [Example 85, 5-(2,3-Dihydrobenzo[b][1,4]dioxin-6-yl)-N-methyl-4-(2-methylpyridin-4-yl)-1H-imidazole-2-carboxamide], for which the minimum inhibitory concentration (MIC) is over 100 µM in assay [1]; over 100 µM in assay [2]; over 100 µM in assay [4]; over 100 µM in assay [5]; 1 to 10 µM (≈ 0.35 to 3.5 µg/mL) in assay [6]; over 100 µM in assay [7]. For the same compound, the MIC in assay [8] was over 100 µM. The IC50 in assay [3] is over 100 µM.

Take `Cc1cc(-c2nc(N)[nH]c2-c2ccc(C(=O)N(C)C)cc2)ccn1` [Example 10, 4-(2-Amino-4-(2-methylpyridin-4-yl)-1H-imidazol-5-yl)-N,N-dimethylbenzamide]: the MIC in assay [1] is over 100 µM; in assay [2], over 100 µM; in assay [4], over 100 µM; in assay [5] it was over 100 µM; in assay [6] it was 1 to 10 µM (≈ 0.321 to 3.21 µg/mL); in assay [7], over 100 µM. In assay [8], this compound yielded an MIC of over 100 µM. In addition, the IC50 in assay [3] is over 100 µM.

Take `Nc1nc(-c2ccc3c(c2)NCCO3)c(-c2ccnc(F)c2)[nH]1` [Example 47, 4-(3,4-Dihydro-2H-benzo[b][1,4]oxazin-6-yl)-5-(2-fluoropyridin-4-yl)-1H-imidazol-2-amine]: the MIC in assay [1] is 1 to 10 µM (≈ 0.311 to 3.11 µg/mL); in assay [2], 10 to 100 µM (≈ 3.11 to 31.1 µg/mL); in assay [4], over 100 µM; in assay [5], over 100 µM; in assay [6] it was at most 1 µM; in assay [7], 1 to 10 µM (≈ 0.311 to 3.11 µg/mL). The compound also displayed an MIC in assay [8] of over 100 µM. Further, the IC50 in assay [3] is over 100 µM.

Regarding `Cc1cc(-c2nc(N)[nH]c2-c2ccc3c(c2)N(CCN)C(=O)CO3)ccn1` [Example 89, 6-(2-Amino-4-(2-methylpyridin-4-yl)-1H-imidazol-5-yl)-4-(2-aminoethyl)-2H-benzo[b][1,4]oxazin-3(4H)-one], the MIC was 1 to 10 µM (≈ 0.364 to 3.64 µg/mL) in assay [1]; 10 to 100 µM (≈ 3.64 to 36.4 µg/mL) in assay [2]; over 100 µM in assay [4]; over 100 µM in assay [5]; at most 1 µM in assay [6]; 1 to 10 µM (≈ 0.364 to 3.64 µg/mL) in assay [7]. Besides, the MIC in assay [8] was over 100 µM. Besides, in assay [3], the IC50 was over 100 µM.
